Patent US12398110B2, “Second generation inhibitors of mitochondrial permeability transition pore with improved plasma stability” (Oregon Health & Science University, priority 2019, dated 2025)
Where two headings read alike, the source gives them in different places.

Legend:
[1] = Plasma stability determination in mouse plasma; type: in vitro ADME; details: mouse, read-out: Mouse Plasma t1/2
Method: Plasma stability determination. The degradation of TR001 in the presence of mouse plasma (from Innovative Research) was used to predict the plasma stability of the compound to esterase catalyzed hydrolysis. A positive control for plasma cholinesterase, propantheline bromide, was included in all assays. Briefly, murine plasma was incubated with 1 μm TR001. Aliquots were removed at t=0, 5, 15, 30, and 60 and 120 min and quenched with acetonitrile containing structurally related compound (TR073) as the internal standard. The amount of TR001 remaining in the supernatant was assessed by LC-MS/MS in multiple reaction monitoring mode (MRM) using a 4000 QTRAP (SCIEX) with electrospray ionization source. The instrument was operated in negative mode with source parameters: source voltage […], GS1 50, GS2 50, CUR 30, TEM 650 and CAD gas MED. Optimal MRM transitions were obtained by direct infusion of the pure compound into the source. The mass spectrometer was interfaced to a Shimadzu (Columbia, MD) SIL-20AC XR auto-sampler maintained at 35° C. followed by 2 LC-20AD XR LC pumps. The internal standard and compound of interest were resolved using a Gemini-NX C18 50×2.1 mm column (Phenomenex) with 0.1% formic acid (solvent A) and 0.1% formic acid in acetonitrile (solvent B). The injection volume was 10 μL at a flow rate of 0.75 mL/min. The gradient elution was 10% B to 95% B over 5 min and held at 95% for 1 min before returning to start conditions. The column was maintained at 40° C. using a Shimadzu CTO-20AC column oven. Data were acquired using Analyst 1.6.2 and analyzed using Multiquant 3.0.1 software. The first-order rate constant for substrate depletion was determined from a linear least squares fit of the natural log of the percent parent compound remaining versus time. The rate constant was used to calculate the plasma half-life as an indicator of stability.

mitochondria = details: from Roy et al. [12]; cited from earlier work
[2] = tested on: inner mitochondrial membrane potential; test: Rhodamine 123 (Rh123) uptake, mitochondrial membrane potential of isolated mouse liver mitochondria; type: biochemical
Text: We next evaluated the mitochondrial toxicity of the new triazole analogs by testing their ability to interfere with accumulation of the membrane-permeant cationic fluorescent dye rhodamine 123 (Rh123). The mitochondrial uptake of positively charged Rh123 is driven by the inside negative IMM potential, which is built by the respiratory chain or maintained by ATP hydrolysis if certain conditions are met. […] It should be noted, however, that toxicity for these compounds only occurs at ˜10-1000-fold higher concentrations compared to mtPTP inhibition, providing a good therapeutic window.
Assessment of mitochondrial membrane potential. Mitochondrial membrane potential—to evaluate toxicity—of isolated mouse liver mitochondria was assessed based on fluorescence quenching of the cationic fluorescent dye Rh123 upon its accumulation into mitochondrial matrix due to inside negative membrane potential. Compounds that interfere with the build-up or maintenance of IMM potential would shift Rh123 fluorescence to higher values compared to DMSO treated samples. Uncoupler FCCP was used to account for nonspecific fluorescence. First, 0.1 mL of SAB was dispensed to a 96-well black assay plate. A set of wells also contained 0.8 μm FCCP (to prevent Rh123 uptake). The test wells contained a range of concentrations (in 1:2 serial dilutions) of the compounds of interest or 2% DMSO. Then, 0.1 mL of 0.5 mg/mL mitochondria in SAB devoid of respiratory substrates but supplemented with 0.8 μm Rh123 were added to all wells of the assay plate. Fluorescence intensity (ex/em 485/535 nm) was read on a Tecan Infinite F200 plate reader for 7 min and value at 5 min was considered for analysis. EC50s±SE were determined with OriginPro software by applying Hill1 function fitting algorithm on average concentration response data of n=3 independent preparations.

mtPTP [3] = test: Ca2+ retention capacity (CRC) of isolated mouse liver mitochondria; type: biochemical
Method: CRC determines the Ca^2+ threshold required for mtPTP activation; inhibitors of mtPTP are expected to increase the Ca^2+ threshold required for mtPTP induction. Extramitochondrial Ca^2+ changes are detected using the membrane-impermeant Ca^2+ indicator, Calcium Green-5N.
(§1) Isolation of mitochondria. C57BL6/N mouse liver mitochondria were prepared from 2 to 6 month old male mice by standard differential centrifugation. Mice fed ad libitum were euthanized with CO2 followed cervical dislocation, their livers were existed and placed in a glass beaker containing ice-cold isolation buffer (IB: 0.25 m sucrose, 10 mm Tris-HCl, 0.1 mm EGTA-Tris, pH 7.4) supplemented with fatty acid free bovine serum albumin. Livers were then cut into small pieces with scissors, rinsed with ice-cold IB, and passed through a pre-chilled Potter homogenizer with Teflon pestle. The homogenate (˜30 mL per liver) was transferred to centrifuge tubes, and unbroken cells and nuclei were removed by centrifugation at 700 g for 10 min at 4° C. The supernatant containing mitochondria and other organelles was transferred to new tubes and centrifuged at 6000 g for 10 min at 4° C. The resulting supernatant was discarded and mitochondrial pellet was carefully suspended in ice-cold IB and spun at 9500 g for 5 min at 4° C. The pellet was suspended in IB to give a protein concentration of ˜60-80 mg/mL and stored on ice. Experiments were started immediately and completed within 5 h. Protein concentration was determined by the Biuret method.
Assessment of Ca^2+ retention capacity (CRC). CRC of isolated mouse liver mitochondria was assessed as follows: First, 0.1 mL of SAB were dispensed to a 96-well black assay plate in the presence of 2% DMSO (control wells) or varying concentrations of test compounds, in 1:2 serial dilutions. Then, 0.1 mL of 0.5 mg/mL mitochondria in SAB devoid of respiratory substrates, but supplemented with 1 μm Calcium Green-5N were added to all wells of the assay plate. A train of 10 μm CaCl2 pulses was added at 2 min intervals, and fluorescence intensity (ex/em 485/535 nm) was read on Tecan Infinite F200 plate reader.

mtPTP [4] = test: Ca2+ overload induced mitochondrial swelling in isolated mouse liver mitochondria; type: biochemical; details: for mtPTP inhibitory activity (in words): SAR discussion of Table 2
Method: We next sought to evaluate the effects of TR001-13 on mtPTP activity in vitro. This was performed on isolated mitochondria. In isolated mitochondria induction of mtPTP opening leads to mitochondrial swelling due to the oncotic pressure gradient created by matrix proteins >1.5 kDa that cannot diffuse through the open pore. In in vitro experiments, where isolated mitochondria are routinely suspended in sucrose-based isosmotic solutions, the change in mitochondrial size can be measured spectrometrically by detecting the decrease in light scattering at 540 nm.
as §1
Assessment of mitochondrial swelling. Changes in mitochondrial volume of isolated mouse liver mitochondria were followed in a 96-well clear assay plate at a final volume of 0.2 mL and 0.25 mg/mL mitochondrial protein. Absorbance was read for 30 min at 540 nm on a Tecan Infinite F200 plate reader. Activity of test compounds was addressed as follows: First, 0.1 mL of sucrose assay buffer (SAB: 0.250 m sucrose, 10 mm MOPS-Tris, 0.01 mm EGTA-Tris, 1.0 mm phosphoric acid-Tris, 10 mm glutamate and 5 mm malate, pH 7.4) supplemented with twice the CaCl2 concentration required to induce mitochondrial swelling (which was determined for each preparation of mitochondria, typically 50 μm) was dispensed to the assay plate. A set of wells also contained 2.0 mm EGTA (to prevent mitochondrial swelling). The test wells contained a range of concentrations (in 1:2 serial dilutions) of the compounds of interest or 2% DMSO. Experiments were started by the addition of 0.1 mL of mitochondrial suspension (0.5 mg/mL mitochondria in SAB without respiratory substrates) to the assay plates. EC50s±SE were determined with OriginPro software by applying Hill1 function fitting algorithm on average concentration response data of n=3-41 independent preparations.

[5] = interference with Rh123 uptake to mitochondria, average ± SEM, n = 3, read-out: Rh123 uptake EC50
[6] = compound treated CRC to DMSO treated CRC0 ratio, 1.25 μM, average ± SEM, n = 3-25
[7] = isolated mouse liver mitochondria, average ± SEM, n = 3-41, read-out: Mitochondrial Swelling EC50
[8] = Mouse Liver Mitochondria (MLM), comparative examples, read-out: Rh123 EC50
[9] = Mouse Liver Mitochondria (MLM), comparative examples
[10] = Mouse Liver Mitochondria (MLM), comparative examples, read-out: Swelling EC50

Row | SMILES | EC50 [2, 5] | EC50 (mtPTP [4]; [7]) | EC50 [2, 8] | EC50 (mtPTP [4]; [10]) | CRC/CRC0 at 1.25 μM (mtPTP [3]; [6]) | CRC/CRC0 at 1.25 μM (mtPTP [3]; [9]) | other results
1 | COc1ccc(-c2cc(C(=O)Nc3cc(Cl)ccc3C)nn2C)cc1O [Compound 73] | – | – | – | – | – | – | half-life at 1 µM [1]: 1.42 h; mitochondrial toxicity (mitochondria): exhibited mitochondrial toxicity
2 | CC(=O)c1ccc(C)c(NC(=O)c2cn(-c3ccc(F)c(O)c3)nn2)c1 | – | – | > 40 µM | 5.2 µM | – | 1.4 | –
3 | COc1ccc(-c2cc(C(=O)Nc3cc(Cl)cnc3C)nn2C)cc1O [Compound 74] | – | – | – | – | – | – | half-life at 1 µM [1]: 2.52 h; mitochondrial toxicity (mitochondria): exhibited mitochondrial toxicity
4 | Cc1ccc(N=[N+]=[N-])cc1NC(=O)c1cn(-c2ccc(F)c(O)c2)nn1 | – | – | > 40 µM | 0.578 µM | – | 2.4 | –
5 | Cc1ccc(Cl)cc1NC(=O)c1cn(-c2cccc(O)c2F)nn1 [TR003, N-(5-chloro-2-methylphenyl)-1-(2-fluoro-3-hydroxyphenyl)-1H-1,2,3-triazole-4-carboxamide] | 29.3 ± 3.3 µM | 0.152 ± 0.036 µM | – | – | 7.4 ± 0.5 | – | fold decrease in activity compared to TR001 (mtPTP [4]; mitochondrial swelling, vs TR001): 5 fold
6 | Cc1ccc(Cl)cc1NC(=O)c1cn(-c2ccc(F)c(O)c2)nn1 [drawing 46] | – | – | > 100 µM | 0.025 µM | – | 7.4 | –
7 | Cc1ccc(Cl)cc1NC(=O)c1cc(-c2ccc(F)c(O)c2)[nH]n1 [Compound 72] | – | – | – | – | – | – | half-life at 1 µM [1]: 8.88 h; mitochondrial toxicity (mitochondria): exhibited mitochondrial toxicity

Continued, in another order:

Row | EC50 [2, 5] | EC50 (mtPTP [4]; [7]) | EC50 [2, 8] | EC50 (mtPTP [4]; [10]) | SMILES | CRC/CRC0 at 1.25 μM (mtPTP [3]; [6]) | CRC/CRC0 at 1.25 μM (mtPTP [3]; [9]) | other results
8 | > 40 µM | > 20 µM | – | – | Cc1ccc(Cl)cc1NC(=O)c1cn(-c2ccc(C)c(O)c2Cl)nn1 [TR010, N-(5-chloro-2-methylphenyl)-1-(2-chloro-3-hydroxy-4-methylphenyl)-1H-1,2,3-triazole-4-carboxamide] | 1.1 ± 0.1 | – | –
9 | > 40 µM | 0.135 ± 0.015 µM | – | – | Cc1ccc(Cl)cc1NC(=O)c1cn(-c2ccc(Cl)c(O)c2)nn1 [TR006, N-(5-chloro-2-methylphenyl)-1-(4-chloro-3-hydroxyphenyl)-1H-1,2,3-triazole-4-carboxamide] | 3.9 ± 0.3 | – | mtPTP inhibitory activity (in words) (mtPTP [4]): decreased activity
10 | > 40 µM | > 20 µM | – | – | Cc1ccc(Cl)cc1NC(=O)c1cn(-c2cc(O)ccc2F)nn1 [TR004, N-(5-chloro-2-methylphenyl)-1-(2-fluoro-5-hydroxyphenyl)-1H-1,2,3-triazole-4-carboxamide] | 1.3 ± 0.03 | – | mtPTP inhibitory activity (in words) (mtPTP [4]): inactive
11 | – | – | > 40 µM | 0.475 µM | Cc1ccc(Cl)cc1NC(=O)c1cn(-c2ccc(Br)c(O)c2)nn1 [drawing 60] | – | 2.4 | –
12 | 14.1 ± 1.2 µM | 0.01 ± 0.002 µM | – | – | Cc1ccc(Cl)cc1NC(=O)c1cn(-c2cc(O)cc(F)c2)nn1 [TR002, N-(5-chloro-2-methylphenyl)-1-(3-fluoro-5-hydroxyphenyl)-1H-1,2,3-triazole-4-carboxamide] | 12.6 ± 0.6 | – | mtPTP inhibitory activity (in words) (mtPTP [4]): most potent analog
13 | > 40 µM | 0.028 ± 0.005 µM | – | – | Cc1ccc(Cl)cc1NC(=O)c1cn(-c2cc(O)cc(Cl)c2)nn1 [TR008, N-(5-chloro-2-methylphenyl)-1-(3-chloro-5-hydroxyphenyl)-1H-1,2,3-triazole-4-carboxamide] | 7.3 ± 1.1 | – | fold decrease in activity compared to TR002 (mtPTP [4]; mitochondrial swelling, vs TR002): 2 fold
14 | – | – | > 40 µM | > 20 µM | Cc1ccc(Cl)cc1NC(=O)c1cn(-c2cccc(O)c2Cl)nn1 [drawing 70] | – | 1.2 | –
15 | – | – | 29 µM | 0.152 µM | Cc1ccc(Cl)cc1NC(=O)c1cn(-c2cccc(O)c2F)nn1 [drawing 51] | – | 7.8 | –
16 | – | – | 6 µM | 0.534 µM | Cc1ccc(Cl)cc1NC(=O)c1cn(-c2cc(O)cc(C(F)(F)F)c2)nn1 [drawing 71] | – | 3 | –
